Experiments:
Experiment in all cases: relative viability (nuclei count vs DMSO), 5 days (fraction); higher = more cells survive
LCLC-97TM1 = system: LCLC-97TM1
Method in brief: (§1)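 Values are medians from duplicate plates. Each reflects relative viability, defined as the nuclei count of treated wells over that of vehicle wells. Lung cancer cell lines in 1536-well plates were pin-tool dosed one day after seeding with one drug alone or with a fixed anchor-drug dose plus five library-drug doses (not always all listed) in √10 steps, then fixed, stained and imaged at 4× after 5 days.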

HCC-78 = system: HCC-78
Method in brief: as §1

NCI-H1666 = system: NCI-H1666
Method in brief: as §1

HCC-15 = system: HCC-15
Method in brief: as §1

NCI-H1651 = system: NCI-H1651
Method in brief: as §1

BEN = system: BEN
Method in brief: as §1

LK-2 = system: LK-2
Method in brief: as §1

NCI-H322M = system: NCI-H322M
Method in brief: as §1

NCI-H2087 = system: NCI-H2087
Method in brief: as §1

LU99A = system: LU99A
Method in brief: as §1

SK-MES-1 = system: SK-MES-1
Method in brief: as §1

LC-2-ad = system: LC-2-ad
Method in brief: as §1

NCI-H1944 = system: NCI-H1944
Method in brief: as §1

NCI-H661 = system: NCI-H661
Method in brief: as §1

ChaGo-K-1 = system: ChaGo-K-1
Method in brief: as §1

LXF-289 = system: LXF-289
Method in brief: as §1

NCI-H650 = system: NCI-H650
Method in brief: as §1

NCI-H358 = system: NCI-H358
Method in brief: as §1

NCI-H2342 = system: NCI-H2342
Method in brief: as §1

NCI-H838 = system: NCI-H838
Method in brief: as §1

PC-3 [JPC-3] = system: PC-3 [JPC-3]
Method in brief: as §1

H3255 = system: H3255
Method in brief: as §1

UMC-11 = system: UMC-11
Method in brief: as §1

NCI-H596 = system: NCI-H596
Method in brief: as §1

CC(C)Oc1cc(Nc2nc(N[C@@H](C)c3ccc(F)cn3)ncc2Cl)n[nH]1 [AZ23] + CC(=O)c1c(C)c2cnc(Nc3ccc(N4CCNCC4)cn3)nc2n(C2CCCC2)c1=O [Palbociclib] (partner 0.5 µM)
relative viability (LCLC-97TM1; first compound 0.01 µM): 0.261 | relative viability (LCLC-97TM1; first compound 0.03162 µM): 0.248 | relative viability (LCLC-97TM1; first compound 0.3162 µM): 0.203 | relative viability (HCC-78; first compound 0.01 µM): 0.533 | relative viability (HCC-78; first compound 0.03162 µM): 0.463 | relative viability (HCC-78; first compound 0.3162 µM): 0.544 | relative viability (NCI-H1666; first compound 0.01 µM): 0.673 | relative viability (NCI-H1666; first compound 0.03162 µM): 0.647 | relative viability (NCI-H1666; first compound 0.3162 µM): 0.652 | relative viability (HCC-15; first compound 0.01 µM): 0.881 | relative viability (HCC-15; first compound 0.03162 µM): 0.757 | relative viability (HCC-15; first compound 0.3162 µM): 0.799 | relative viability (NCI-H1651; first compound 0.01 µM): 0.523 | relative viability (NCI-H1651; first compound 0.03162 µM): 0.526 | relative viability (NCI-H1651; first compound 0.3162 µM): 0.505 | relative viability (BEN; first compound 0.01 µM): 0.475 | relative viability (BEN; first compound 0.03162 µM): 0.458 | relative viability (BEN; first compound 0.3162 µM): 0.455 | relative viability (LK-2; first compound 0.03162 µM): 0.544 | relative viability (LK-2; first compound 0.3162 µM): 0.678 | relative viability (NCI-H322M; first compound 0.01 µM): 0.446 | relative viability (NCI-H322M; first compound 0.03162 µM): 0.472 | relative viability (NCI-H322M; first compound 0.3162 µM): 0.485 | relative viability (NCI-H2087; first compound 0.01 µM): 0.255 | relative viability (NCI-H2087; first compound 0.03162 µM): 0.21 | relative viability (NCI-H2087; first compound 0.3162 µM): 0.22 | relative viability (LU99A; first compound 0.01 µM): 0.39 | relative viability (LU99A; first compound 0.03162 µM): 0.468 | relative viability (LU99A; first compound 0.3162 µM): 0.371 | relative viability (SK-MES-1; first compound 0.03162 µM): 0.291 | relative viability (SK-MES-1; first compound 0.3162 µM): 0.328 | relative viability (LC-2-ad; first compound 0.01 µM): 0.593 | relative viability (LC-2-ad; first compound 0.03162 µM): 0.529 | relative viability (LC-2-ad; first compound 0.3162 µM): 0.501 | relative viability (NCI-H1944; first compound 0.01 µM): 0.304 | relative viability (NCI-H1944; first compound 0.03162 µM): 0.342 | relative viability (NCI-H1944; first compound 0.3162 µM): 0.278 | relative viability (NCI-H661; first compound 0.01 µM): 0.367 | relative viability (NCI-H661; first compound 0.03162 µM): 0.391 | relative viability (NCI-H661; first compound 0.3162 µM): 0.349 | relative viability (ChaGo-K-1; first compound 0.01 µM): 1.12 | relative viability (ChaGo-K-1; first compound 0.03162 µM): 0.97 | relative viability (ChaGo-K-1; first compound 0.3162 µM): 1 | relative viability (LXF-289; first compound 0.01 µM): 0.739 | relative viability (LXF-289; first compound 0.03162 µM): 0.631 | relative viability (LXF-289; first compound 0.3162 µM): 0.534 | relative viability (NCI-H650; first compound 0.01 µM): 0.352 | relative viability (NCI-H650; first compound 0.03162 µM): 0.309 | relative viability (NCI-H650; first compound 0.3162 µM): 0.301 | relative viability (NCI-H358; first compound 0.01 µM): 0.129 | relative viability (NCI-H358; first compound 0.03162 µM): 0.141 | relative viability (NCI-H358; first compound 0.3162 µM): 0.13 | relative viability (NCI-H2342; first compound 0.01 µM): 0.516 | relative viability (NCI-H2342; first compound 0.03162 µM): 0.511 | relative viability (NCI-H2342; first compound 0.3162 µM): 0.509 | relative viability (NCI-H838; first compound 0.01 µM): 0.227 | relative viability (NCI-H838; first compound 0.03162 µM): 0.23 | relative viability (NCI-H838; first compound 0.3162 µM): 0.247 | relative viability (PC-3 [JPC-3]; first compound 0.01 µM): 0.552 | relative viability (PC-3 [JPC-3]; first compound 0.03162 µM): 0.611 | relative viability (PC-3 [JPC-3]; first compound 0.3162 µM): 0.536 | relative viability (H3255; first compound 0.01 µM): 0.31 | relative viability (H3255; first compound 0.03162 µM): 0.318 | relative viability (H3255; first compound 0.3162 µM): 0.295 | relative viability (UMC-11; first compound 0.01 µM): 0.341 | relative viability (UMC-11; first compound 0.03162 µM): 0.338 | relative viability (UMC-11; first compound 0.3162 µM): 0.353

CC(C)Oc1cc(Nc2nc(N[C@@H](C)c3ccc(F)cn3)ncc2Cl)n[nH]1 [AZ23] + CCNC(=O)c1noc(-c2cc(C(C)C)c(O)cc2O)c1-c1ccc(CN2CCOCC2)cc1 [Luminespib] (partner 0.01 µM)
relative viability (LCLC-97TM1; first compound 0.01 µM): 0.846 | relative viability (LCLC-97TM1; first compound 0.03162 µM): 0.783 | relative viability (LCLC-97TM1; first compound 0.3162 µM): 0.796 | relative viability (NCI-H1666; first compound 0.01 µM): 1.05 | relative viability (NCI-H1666; first compound 0.03162 µM): 1.34 | relative viability (NCI-H1666; first compound 0.3162 µM): 0.943 | relative viability (HCC-15; first compound 0.01 µM): 0.435 | relative viability (HCC-15; first compound 0.03162 µM): 0.243 | relative viability (HCC-15; first compound 0.3162 µM): 0.338 | relative viability (NCI-H1651; first compound 0.03162 µM): 0.753 | relative viability (NCI-H1651; first compound 0.3162 µM): 0.672 | relative viability (BEN; first compound 0.01 µM): 0.287 | relative viability (BEN; first compound 0.03162 µM): 0.378 | relative viability (BEN; first compound 0.3162 µM): 0.243 | relative viability (LK-2; first compound 0.01 µM): 0.185 | relative viability (LK-2; first compound 0.03162 µM): 0.189 | relative viability (LK-2; first compound 0.3162 µM): 0.177 | relative viability (NCI-H322M; first compound 0.03162 µM): 0.879 | relative viability (NCI-H322M; first compound 0.3162 µM): 1.08 | relative viability (NCI-H2087; first compound 0.01 µM): 0.151 | relative viability (NCI-H2087; first compound 0.03162 µM): 0.171 | relative viability (NCI-H2087; first compound 0.3162 µM): 0.169 | relative viability (LU99A; first compound 0.01 µM): 0.217 | relative viability (LU99A; first compound 0.03162 µM): 0.188 | relative viability (LU99A; first compound 0.3162 µM): 0.298 | relative viability (SK-MES-1; first compound 0.03162 µM): 0.834 | relative viability (SK-MES-1; first compound 0.3162 µM): 0.952 | relative viability (LC-2-ad; first compound 0.01 µM): 1.26 | relative viability (LC-2-ad; first compound 0.03162 µM): 0.965 | relative viability (LC-2-ad; first compound 0.3162 µM): 0.93 | relative viability (NCI-H1944; first compound 0.01 µM): 0.557 | relative viability (NCI-H1944; first compound 0.03162 µM): 0.75 | relative viability (NCI-H1944; first compound 0.3162 µM): 0.726 | relative viability (NCI-H661; first compound 0.01 µM): 1.06 | relative viability (NCI-H661; first compound 0.03162 µM): 0.867 | relative viability (NCI-H661; first compound 0.3162 µM): 0.984 | relative viability (ChaGo-K-1; first compound 0.01 µM): 0.637 | relative viability (ChaGo-K-1; first compound 0.03162 µM): 0.687 | relative viability (ChaGo-K-1; first compound 0.3162 µM): 0.7 | relative viability (LXF-289; first compound 0.01 µM): 0.884 | relative viability (LXF-289; first compound 0.03162 µM): 0.745 | relative viability (LXF-289; first compound 0.3162 µM): 0.598 | relative viability (NCI-H650; first compound 0.01 µM): 0.665 | relative viability (NCI-H650; first compound 0.03162 µM): 0.854 | relative viability (NCI-H650; first compound 0.3162 µM): 0.765 | relative viability (NCI-H358; first compound 0.01 µM): 0.416 | relative viability (NCI-H358; first compound 0.03162 µM): 0.395 | relative viability (NCI-H358; first compound 0.3162 µM): 0.349 | relative viability (NCI-H2342; first compound 0.01 µM): 0.658 | relative viability (NCI-H2342; first compound 0.03162 µM): 0.679 | relative viability (NCI-H2342; first compound 0.3162 µM): 0.718 | relative viability (NCI-H838; first compound 0.01 µM): 0.229 | relative viability (NCI-H838; first compound 0.03162 µM): 0.278 | relative viability (NCI-H838; first compound 0.3162 µM): 0.345 | relative viability (PC-3 [JPC-3]; first compound 0.01 µM): 0.581 | relative viability (PC-3 [JPC-3]; first compound 0.03162 µM): 0.582 | relative viability (PC-3 [JPC-3]; first compound 0.3162 µM): 0.637 | relative viability (H3255; first compound 0.01 µM): 0.574 | relative viability (H3255; first compound 0.03162 µM): 0.888 | relative viability (H3255; first compound 0.3162 µM): 0.854 | relative viability (NCI-H596; first compound 0.01 µM): 1.13 | relative viability (NCI-H596; first compound 0.03162 µM): 1.06 | relative viability (NCI-H596; first compound 0.3162 µM): 0.857 | relative viability (UMC-11; first compound 0.01 µM): 1.15 | relative viability (UMC-11; first compound 0.03162 µM): 1.05 | relative viability (UMC-11; first compound 0.3162 µM): 0.988

Source: the supplement of paper PMC10307832
